Laboratory results taken from ChEMBL document CHEMBL5303573, “Mapping human microbiome drug metabolism by gut bacteria and their genes” (Nature, 2019).

Assay: The drug is tested on Bacteroides caccae strain: ATCC43185 for biotransformation. The drug concentrations were measured before and after a 12-h incubation by liquid-chromatography-coupled mass spectrometry (LC–MS)
Settings: 2 µM

Q: Which “Bacterial Biotransformation” value does the source give for `COc1ccccc1OCCNCC(O)COc1cccc2[nH]c3ccccc3c12` (centres undefined) [CARVEDILOL] here?
A: Compound metabolized

Q: With `COC(=O)[C@H](c1ccccc1Cl)N1CCc2sccc2C1.O=S(=O)(O)O` [CLOPIDOGREL BISULFATE] as the molecule, how does the “Bacterial Biotransformation” value read?
A: Compound NOT metabolized

Assay: The drug is tested on Bacteroides fragilis strain: ATCC43859 for biotransformation. The drug concentrations were measured before and after a 12-h incubation by liquid-chromatography-coupled mass spectrometry (LC–MS)
Settings: 2 µM

Q: Which “Bacterial Biotransformation” value does the source give for `COc1ccccc1OCCNCC(O)COc1cccc2[nH]c3ccccc3c12` (centres undefined) [CARVEDILOL] here?
A: Compound NOT metabolized

Q: For `COC(=O)[C@H](c1ccccc1Cl)N1CCc2sccc2C1.O=S(=O)(O)O` [CLOPIDOGREL BISULFATE], which “Bacterial Biotransformation” value is on record?
A: Compound metabolized

Settings: bacteroides fragilis, 12 h, 2 µM
Description: The drug is tested on Bacteroides fragilis strain: 3397 (T10) for biotransformation. The drug concentrations were measured before and after a 12-h incubation by liquid-chromatography-coupled mass spectrometry (LC–MS)

Q: Which “Bacterial Biotransformation” value does the source give for `COc1ccccc1OCCNCC(O)COc1cccc2[nH]c3ccccc3c12` (centres undefined) [CARVEDILOL] here?
A: Compound NOT metabolized

Q: Which “Bacterial Biotransformation” value does the source give for `COC(=O)[C@H](c1ccccc1Cl)N1CCc2sccc2C1.O=S(=O)(O)O` [CLOPIDOGREL BISULFATE] here?
A: Compound metabolized

Assay: The drug is tested on Clostridium scindens strain: ATCC35704 for biotransformation. The drug concentrations were measured before and after a 12-h incubation by liquid-chromatography-coupled mass spectrometry (LC–MS)
Settings: 2 µM

Q: For `COc1ccccc1OCCNCC(O)COc1cccc2[nH]c3ccccc3c12` (centres undefined) [CARVEDILOL], which “Bacterial Biotransformation” value is on record?
A: Compound NOT metabolized

Q: With `COC(=O)[C@H](c1ccccc1Cl)N1CCc2sccc2C1.O=S(=O)(O)O` [CLOPIDOGREL BISULFATE] as the molecule, how does the “Bacterial Biotransformation” value read?
A: Compound NOT metabolized

Assay: The drug is tested on Eubacterium hallii strain: DSM3353 for biotransformation. The drug concentrations were measured before and after a 12-h incubation by liquid-chromatography-coupled mass spectrometry (LC–MS)
Settings: anaerobutyricum hallii, 2 µM

Q: Which “Bacterial Biotransformation” value does the source give for `COc1ccccc1OCCNCC(O)COc1cccc2[nH]c3ccccc3c12` (centres undefined) [CARVEDILOL] here?
A: Compound metabolized

Q: For `COC(=O)[C@H](c1ccccc1Cl)N1CCc2sccc2C1.O=S(=O)(O)O` [CLOPIDOGREL BISULFATE], which “Bacterial Biotransformation” value is on record?
A: Compound NOT metabolized

Assay: The drug is tested on Odoribacter splanchnicus strain: fecal isolate for biotransformation. The drug concentrations were measured before and after a 12-h incubation by liquid-chromatography-coupled mass spectrometry (LC–MS)
Settings: 2 µM

Q: For `COc1ccccc1OCCNCC(O)COc1cccc2[nH]c3ccccc3c12` (centres undefined) [CARVEDILOL], which “Bacterial Biotransformation” value is on record?
A: Compound NOT metabolized

Q: Which “Bacterial Biotransformation” value does the source give for `COC(=O)[C@H](c1ccccc1Cl)N1CCc2sccc2C1.O=S(=O)(O)O` [CLOPIDOGREL BISULFATE] here?
A: Compound metabolized

Settings: bacteroides thetaiotaomicron, 12 h, 2 µM
Description: The drug is tested on Bacteroides thetaiotaomicron strain: 3731 for biotransformation. The drug concentrations were measured before and after a 12-h incubation by liquid-chromatography-coupled mass spectrometry (LC–MS)

Q: For `COc1ccccc1OCCNCC(O)COc1cccc2[nH]c3ccccc3c12` (centres undefined) [CARVEDILOL], which “Bacterial Biotransformation” value is on record?
A: Compound metabolized

Q: For `COC(=O)[C@H](c1ccccc1Cl)N1CCc2sccc2C1.O=S(=O)(O)O` [CLOPIDOGREL BISULFATE], which “Bacterial Biotransformation” value is on record?
A: Compound NOT metabolized

Assay: The drug is tested on Collinsella aerofaciens strain: ATCC25986 for biotransformation. The drug concentrations were measured before and after a 12-h incubation by liquid-chromatography-coupled mass spectrometry (LC–MS)
Settings: 2 µM

Q: Which “Bacterial Biotransformation” value does the source give for `COc1ccccc1OCCNCC(O)COc1cccc2[nH]c3ccccc3c12` (centres undefined) [CARVEDILOL] here?
A: Compound metabolized

Q: With `COC(=O)[C@H](c1ccccc1Cl)N1CCc2sccc2C1.O=S(=O)(O)O` [CLOPIDOGREL BISULFATE] as the molecule, how does the “Bacterial Biotransformation” value read?
A: Compound NOT metabolized

Assay: The drug is tested on Enterobacter cancerogenus strain: ATCC35316 for biotransformation. The drug concentrations were measured before and after a 12-h incubation by liquid-chromatography-coupled mass spectrometry (LC–MS)
Settings: 2 µM

Q: For `COc1ccccc1OCCNCC(O)COc1cccc2[nH]c3ccccc3c12` (centres undefined) [CARVEDILOL], which “Bacterial Biotransformation” value is on record?
A: Compound metabolized

Q: With `COC(=O)[C@H](c1ccccc1Cl)N1CCc2sccc2C1.O=S(=O)(O)O` [CLOPIDOGREL BISULFATE] as the molecule, how does the “Bacterial Biotransformation” value read?
A: Compound NOT metabolized

Assay: The drug is tested on Bacteroides fragilis strain: HMW615 for biotransformation. The drug concentrations were measured before and after a 12-h incubation by liquid-chromatography-coupled mass spectrometry (LC–MS)
Settings: 2 µM

Q: For `COc1ccccc1OCCNCC(O)COc1cccc2[nH]c3ccccc3c12` (centres undefined) [CARVEDILOL], which “Bacterial Biotransformation” value is on record?
A: Compound metabolized

Q: For `COC(=O)[C@H](c1ccccc1Cl)N1CCc2sccc2C1.O=S(=O)(O)O` [CLOPIDOGREL BISULFATE], which “Bacterial Biotransformation” value is on record?
A: Compound metabolized

Assay: The drug is tested on Bifidobacterium longum subsp. Infantis strain: CCUG52486 for biotransformation. The drug concentrations were measured before and after a 12-h incubation by liquid-chromatography-coupled mass spectrometry (LC–MS)
Settings: 2 µM

Q: For `COc1ccccc1OCCNCC(O)COc1cccc2[nH]c3ccccc3c12` (centres undefined) [CARVEDILOL], which “Bacterial Biotransformation” value is on record?
A: Compound NOT metabolized

Q: For `COC(=O)[C@H](c1ccccc1Cl)N1CCc2sccc2C1.O=S(=O)(O)O` [CLOPIDOGREL BISULFATE], which “Bacterial Biotransformation” value is on record?
A: Compound NOT metabolized

Assay: The drug is tested on Bacteroides xylanisolvens strain: DSM18836 for biotransformation. The drug concentrations were measured before and after a 12-h incubation by liquid-chromatography-coupled mass spectrometry (LC–MS)
Settings: 2 µM

Q: With `COc1ccccc1OCCNCC(O)COc1cccc2[nH]c3ccccc3c12` (centres undefined) [CARVEDILOL] as the molecule, how does the “Bacterial Biotransformation” value read?
A: Compound metabolized

Q: Which “Bacterial Biotransformation” value does the source give for `COC(=O)[C@H](c1ccccc1Cl)N1CCc2sccc2C1.O=S(=O)(O)O` [CLOPIDOGREL BISULFATE] here?
A: Compound metabolized

Settings: parabacteroides distasonis, 12 h, 2 µM
Description: The drug is tested on Parabacteroides distasonis strain: ATCC8503 for biotransformation. The drug concentrations were measured before and after a 12-h incubation by liquid-chromatography-coupled mass spectrometry (LC–MS)

Q: For `COc1ccccc1OCCNCC(O)COc1cccc2[nH]c3ccccc3c12` (centres undefined) [CARVEDILOL], which “Bacterial Biotransformation” value is on record?
A: Compound metabolized

Q: Which “Bacterial Biotransformation” value does the source give for `COC(=O)[C@H](c1ccccc1Cl)N1CCc2sccc2C1.O=S(=O)(O)O` [CLOPIDOGREL BISULFATE] here?
A: Compound metabolized

Assay: The drug is tested on Coprococcus comes strain: ATCC27758 for biotransformation. The drug concentrations were measured before and after a 12-h incubation by liquid-chromatography-coupled mass spectrometry (LC–MS)
Assay type: ADME
Parameters: dose 2 uM, timepoint 0 vs 12 hours
Settings: 2 µM

Q: For `COc1ccccc1OCCNCC(O)COc1cccc2[nH]c3ccccc3c12` (centres undefined) [CARVEDILOL], which “Bacterial Biotransformation” value is on record?
A: Compound NOT metabolized

Q: Which “Bacterial Biotransformation” value does the source give for `COC(=O)[C@H](c1ccccc1Cl)N1CCc2sccc2C1.O=S(=O)(O)O` [CLOPIDOGREL BISULFATE] here?
A: Compound NOT metabolized

Assay: The drug is tested on Ruminococcus lactaris strain: ATCC29176 for biotransformation. The drug concentrations were measured before and after a 12-h incubation by liquid-chromatography-coupled mass spectrometry (LC–MS)
Settings: 2 µM

Q: Which “Bacterial Biotransformation” value does the source give for `COc1ccccc1OCCNCC(O)COc1cccc2[nH]c3ccccc3c12` (centres undefined) [CARVEDILOL] here?
A: Compound metabolized

Q: For `COC(=O)[C@H](c1ccccc1Cl)N1CCc2sccc2C1.O=S(=O)(O)O` [CLOPIDOGREL BISULFATE], which “Bacterial Biotransformation” value is on record?
A: Compound NOT metabolized

Settings: anaerostipes sp., 12 h, 2 µM
Description: The drug is tested on Anaerostipes sp. strain: fecal isolate for biotransformation. The drug concentrations were measured before and after a 12-h incubation by liquid-chromatography-coupled mass spectrometry (LC–MS)

Q: With `COc1ccccc1OCCNCC(O)COc1cccc2[nH]c3ccccc3c12` (centres undefined) [CARVEDILOL] as the molecule, how does the “Bacterial Biotransformation” value read?
A: Compound metabolized

Q: For `COC(=O)[C@H](c1ccccc1Cl)N1CCc2sccc2C1.O=S(=O)(O)O` [CLOPIDOGREL BISULFATE], which “Bacterial Biotransformation” value is on record?
A: Compound NOT metabolized

Assay: The drug is tested on Clostridium sporogenes strain: ATCC15579 for biotransformation. The drug concentrations were measured before and after a 12-h incubation by liquid-chromatography-coupled mass spectrometry (LC–MS)
Settings: 2 µM

Q: Which “Bacterial Biotransformation” value does the source give for `COc1ccccc1OCCNCC(O)COc1cccc2[nH]c3ccccc3c12` (centres undefined) [CARVEDILOL] here?
A: Compound metabolized

Q: Which “Bacterial Biotransformation” value does the source give for `COC(=O)[C@H](c1ccccc1Cl)N1CCc2sccc2C1.O=S(=O)(O)O` [CLOPIDOGREL BISULFATE] here?
A: Compound metabolized

Assay: The drug is tested on Bacteroides finegoldii strain: DSM17565 for biotransformation. The drug concentrations were measured before and after a 12-h incubation by liquid-chromatography-coupled mass spectrometry (LC–MS)
Settings: 2 µM

Q: Which “Bacterial Biotransformation” value does the source give for `COc1ccccc1OCCNCC(O)COc1cccc2[nH]c3ccccc3c12` (centres undefined) [CARVEDILOL] here?
A: Compound metabolized

Settings: bacteroides intestinalis, 12 h, 2 µM
Description: The drug is tested on Bacteroides intestinalis strain: DSM17393 for biotransformation. The drug concentrations were measured before and after a 12-h incubation by liquid-chromatography-coupled mass spectrometry (LC–MS)

Q: Which “Bacterial Biotransformation” value does the source give for `COc1ccccc1OCCNCC(O)COc1cccc2[nH]c3ccccc3c12` (centres undefined) [CARVEDILOL] here?
A: Compound metabolized

Q: With `COC(=O)[C@H](c1ccccc1Cl)N1CCc2sccc2C1.O=S(=O)(O)O` [CLOPIDOGREL BISULFATE] as the molecule, how does the “Bacterial Biotransformation” value read?
A: Compound NOT metabolized

Assay: The drug is tested on Providencia rettgeri strain: DSM1131 for biotransformation. The drug concentrations were measured before and after a 12-h incubation by liquid-chromatography-coupled mass spectrometry (LC–MS)
Assay type: ADME
Parameters: dose 2 uM, timepoint 0 vs 12 hours
Settings: 2 µM

Q: Which “Bacterial Biotransformation” value does the source give for `COc1ccccc1OCCNCC(O)COc1cccc2[nH]c3ccccc3c12` (centres undefined) [CARVEDILOL] here?
A: Compound NOT metabolized

Q: Which “Bacterial Biotransformation” value does the source give for `COC(=O)[C@H](c1ccccc1Cl)N1CCc2sccc2C1.O=S(=O)(O)O` [CLOPIDOGREL BISULFATE] here?
A: Compound NOT metabolized
